Data taken from patent EP0969854B1, “INHIBITION OF SIGNAL TRANSDUCTION BY THE BINDING OF NON-PHOSPHORYLATED COMPOSITIONS” (GEORGETOWN UNIVERSITY, priority 1996, dated 2006).
Bridge positions count the residues as written; N and C are the ends. Ends that are not written are not given here.

Legend:
Grb2 SH2 domain = assay: Surface plasmon resonance (Biacore): inhibition of GST-Grb2 binding to immobilised SHC phosphopeptide; details: for inhibition of Grb2 binding to the SHC phosphopeptide: peptide at 50 µM; for inhibiting activity: peptide at 500 µM
From the text: The G1 peptide (CELYENVGMYC [disulfide bonded]) was used as an inhibitor of the interaction of the Grb2 with a SHC phosphopeptide in surface plasmon resonance (Biacore) experiments. The SHC phosphopeptide was attached to the solid surface by incorporation of a biotin at the N-terminus as described in Pelicci, G., et al., "The motogenic and mitogenic responses to HGF are amplified by the Shc adaptor protein," Oncogene, 10: 1631-1638, 1995. This biotinylated phospho-SHC peptide was then bound to the streptavidin on the surface of SA5 chips (Pharmacia-Biacore). The binding was conducted at a 2nM and 5 µl/minute for 10 minutes. The peptides were mixed with 200 nM GST-Grb2 in HBS buffer (Pharmacia Biacore) and allowed to bind for 10 minutes at a flow rate of 5 µl/minute. The Ru change at equilibrium was calculated and the percent of control (no added peptide) binding was calculated.
The G1 peptide was compared to SHC phosphopeptide (DDPSpYVNVQ), G1C-S (SELYENVGMYS), which is similar to G1 but wherein the cysteines are replaced with serines, and SHC control peptide (DDPSYVNVQ), in which the tyrosine is not phosphorated.
Songyang et al. Mol. Cell Biol., 14:2777-2785 (1994). The requirement of these amino acids in the G1 peptide sequence was tested by synthesizing peptides with alanine substitutions at these positions. G1.4Y-A contains an alanine substitution in place of the tyrosine at position 4 (CELAENVGMYC) and G16N-A contains an alanine substitution for the asparagine at position 6 (CELYEAVGMYC). […] The binding of peptide to the Grb2 SH2 domain was measured by surface plasmon resonance (Pharmacia Biacore). The percent inhibition was calculated by comparison of the Rueq in the presence of peptide with the Rueq with no inhibiting peptide present.

cell proliferation = details: cited from earlier work
[1] = target: intact GST-Grb2 fusion protein (UniProt P62993); assay: SPR competition in solution, SHC phosphopeptide and G1 for GST-Grb2 compared directly (Figure 6)
UniProt P62993, sequence (P62993 whole entry, the tested form may be a part): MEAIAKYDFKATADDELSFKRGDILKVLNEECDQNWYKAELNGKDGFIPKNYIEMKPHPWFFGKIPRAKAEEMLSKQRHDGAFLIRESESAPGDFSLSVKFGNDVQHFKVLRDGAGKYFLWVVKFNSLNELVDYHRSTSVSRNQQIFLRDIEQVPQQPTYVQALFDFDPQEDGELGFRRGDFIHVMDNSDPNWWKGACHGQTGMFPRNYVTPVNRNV

Row | Molecule | inhibition of Grb2 binding to the SHC phosphopeptide (Grb2 SH2 domain) | inhibiting activity (Grb2 SH2 domain) | block of cell proliferation (cell proliferation) | fold difference in affinity against SHC phosphopeptide [1] [fold]
1 | CELYEAVGMYC [G16N-A, alanine substitution for the asparagine at position 6] | No inhibition | limited activity | – | –
2 | CELAENVGMYC [G1.4Y-A, alanine substitution in place of the tyrosine at position 4] | No inhibition | limited activity | – | –
3 | AcpYEEIE | – | – | lack of effect | –
4 | CELYENVGMYC (disulfide 1-11) [G1 peptide (… [disulfide bonded])] | – | – | – | 10
